Experimental findings from patent publication US7247630B2, “Uses of tricyclic compounds” (Cell Therapeutics, Inc., priority 2000, dated 2007) are described below.

The subject of experiment [1] is IL-12 induced Th1 differentiation. The experiment in a line: IL-12 dependent in vitro T-helper cell (Th1) differentiation assay. The conditions noted are these: 168 h, inhibition of IL-12 induced Th1 differentiation as defined by IFN-γ production upon secondary stimulation with anti-CD3 alone, splenic T cells, anti-CD3 and 5 U/ml IL-12, seven days. It is filed as cell-based. The procedure:
This example illustrates the inventive compounds' ability to suppress Th1 differentiation in vitro by blocking IL-12 signaling. Each of compounds [A through Y] were tested in an IL-12 dependent in vitro T-helper cell differentiation assay as described in LeGross et al., J. Exp. Med., 172:921-929 (1990). Recombinant IL-12 was used to induce Th1 differentiation. Splenic T cells were purified utilizing the antibodies RA3-3A1/6.1 (anti-B220), J11d and MAR18.5 (anti-rat kappa chain) to deplete the B cells by magnetic bead separation, as described in Coon et al, J. Immuno., 163:6567-6574 (1989). Splenic T cells were stimulated at 5×10^5/ml with insoluble anti-CD3 alone (145-2C11, Pharmingen, San Diego, Calif.), or anti-CD3 and 5 U/ml IL-12, with and without each inventive compound. After seven days, equal numbers of viable cells were restimulated for 24 hours with anti-CD3 without the inventive compounds, and the supernatants were collected and assayed for IFN-γ production. IFN-γ and IL-4 levels were measured by ELISA test specific for IFN-γ and IL-4.
Th1 differentiation was induced by culturing anti-CD3 stimulated T cells in the presence of exogenous IL-12. […] It was observed that the presence of the tested compounds during T cell activation inhibited Th1 differentiation, which had been enhanced by the addition of exogenous IL-12. The values in the “IC50 μM” column were determined by measuring the inhibition of IL-12 induced Th1 differentiation as defined by IFN-γ production upon secondary stimulation with anti-CD3 alone. None of the compounds affected the viability or recovery of T cells after one week of culture

Experiment [2] concerns IL-4 induced T2 differentiation. The experiment in a line: T2 differentiation assay (T0 cells stimulated in the presence of IL-4). The experiment is classed as cell-based. The conditions noted are these: for IC50: T0 cells stimulated in the presence of IL-4, IL-4 secretion as readout; for IL-4 production of resulting effector cells / activation and proliferation of resulting effector cells: T0 cells stimulated in the presence of IL-4 and compound. The procedure: (R)-7,8-Dihydro-3-(5-hydroxyhexyl)-1-methyl-1H-imidazo[2,1-f]-purine-2,4(3H,6H)-dione (CT-13430) (see Example 1) and (R)-3-(5-Hydroxyhexyl)-1-methyl-6,7,8,9-tetrahydro-pyrimido[2,1-f]purine-2,4(1H,3H)-dione (CT-13431) (see Example 4) were tested to determine their ability to block the differentiation of T0 cells to T2 effectors as judged by their relative inability to secrete the canonical T2 effector cytokine, IL-4, following treatment with the compounds. In a series of experiments analogous to the T1 differentiation assay of Example 10 (in which T0 cells were induced to become T1 effectors by polyclonal stimulation in the presence of IL-12), the above compounds were effective in a T2 differentiation assay in which T0 cells are stimulated in the presence of IL-4, which affects T2 differentiation.

In experiment [1], `C[C@@H](O)CCCCn1c(=O)c2c(nc3n2CCS3)n(C)c1=O` [compound 13421, (R)-6,7-Dihydro-3-(5-hydroxyhexyl)-1-methyl-thiazolo[2,3-f]purine-2,4 (1H,3H)-dione] yielded a half-inhibitory concentration (IC50) of 33 µM.
`C[C@@H](O)CCCCn1c(=O)c2c(nc3n2CCN3)n(C)c1=O` [compound 13430, (R)-7,8-Dihydro-3-(5-hydroxyhexyl)-1-methyl-1H-imidazo[2,1-f]-purine-2,4(3H,6H)-dione] displayed a concentration for half-maximal inhibition (IC50) in experiment [1] of 17 µM. Also, in experiment [2], the half-inhibitory concentration (IC50) was found to be 14 µM; the “IL-4 production of resulting effector cells” value is “deficient in IL-4 production”; the “activation and proliferation of resulting effector cells” value is listed as “proliferated normally”.
For `C[C@@H](O)CCCCn1c(=O)c2c(nc3n2CCCN3)n(C)c1=O` [compound 13431, (R)-3-(5-Hydroxyhexyl)-1-methyl-6,7,8,9-tetrahydro-pyrimido[2,1-f]purine-2,4(1H,3H)-dione] the same measures were 11 µM, 13 µM, “deficient in IL-4 production” and “proliferated normally”.
On to `C[C@@H](O)CCCCn1c(=O)c2c(nc3n2CCNC3)n(C)c1=O` [compound 30099, (R)-3-(5-hydroxyhexyl)-1-methyl-6,7,8,9-tetrahydro-pyrazino[2,1-f]purine-2,4(1H,3H)-dione], for which inhibition in experiment [1] was half-maximal at 22 µM (IC50).
In turn, `C[C@@H](C#N)CCCCn1c(=O)c2c(nc3n2CCCN3)n(C)c1=O` [compound 30146, (R)-3-(5-cyanohexyl)-1-methyl-6,7,8,9-tetrahydro-pyrimido[2,1-f]purine-2,4(1H,3H)-dione] displayed a half-inhibitory concentration (IC50) in experiment [1] of 14 µM.
The same measure, in the same setting: in the case of `C[C@@H](C#N)CCCCn1c(=O)c2c(nc3n2CCN3)n(C)c1=O` [compound 30255, (R)-3-(5-Cyanohexyl)-7,8-dihydro-1-methyl-1H-imidazo[2,1-f]-purine-2,4(3H,6H)-dione] it was 16 µM; in that of `CC(=O)N1CCn2c1nc1c2c(=O)n(CCCC[C@H](C)O)c(=O)n1C` [compound 30256], 24 µM; in that of `CC(=O)N1CCn2c1nc1c2c(=O)n(CCCC[C@@H](C)N)c(=O)n1C` [compound 30259], 15 µM.
In experiment [1], `CC(=O)N1CCn2c1nc1c2c(=O)n(CCCC[C@@H](C)O)c(=O)n1C` [compound 30260, (R)-3-(5-Hydroxyhexyl)-1-methyl-6,7-dihydro-2,4-dioxo-8-N-acetyl-1H-imidazo[2,1-f]-purine] showed a 50% inhibitory concentration (IC50) of 9 µM.
On the same count and under the same terms, in the case of `C[C@@H](CCCCn1c(=O)c2c(nc3n2CCCN3C)n(C)c1=O)N(C)C` [compound 30262] it was 34 µM; in that of `C[C@H](N)CCCCn1c(=O)c2c(nc3n2CCCN3)n(C)c1=O` [compound 30263], 90 µM.
Same read-out and setting: the value for `C[C@@H](CCCCn1c(=O)c2c(nc3n2CCCN3)n(C)c1=O)N(C)C` [compound 30264] was 39 µM; that for `C[C@H](CCCCn1c(=O)c2c(nc3n2CCCN3)n(C)c1=O)N(C)C` [compound 30267] was 34 µM; that for `C[C@@H](O)CCCCn1c(=O)c2nc3n(c2n(C)c1=O)CCN3` [compound 30268, (R)-3-(5-hydroxyhexyl)-1-methyl-1,6,7,8-tetrahydro-2H-imidazo[1,2-e]-purine-2,4(3H)-dione] was 20 µM.
Same read-out and setting: the value for `C[C@H](O)CCCCn1c(=O)c2c(nc3n2CCCN3)n(C)c1=O` [compound 30269] was 53 µM.
